Measured values published in patent EP3868759A1, “2,3,5-SUBSTITUTED PYRROLO[2,3-B]PYRIDINES AS ERBB MODULATORS USEFUL FOR TREATING CANCER” (PearlRiver Bio GmbH, priority 2020, dated 2021).

How the values were obtained:
[1] = target: T1, HER2 INS YVMA (Homo sapiens, UniProt P04626, INS775YVMA); experiment: Lance Kinase Activity Assay, Her2 Exon 20 InsYVMA; details: biochemical Lance assay
T1 construct: purchased DPF
Procedure: This protocol describes how the Lance Kinase Activity Assay was performed to determine IC50 values of compounds of general formula (I) against HER2 INS YVMA. The principle behind this enzymatic assay is based upon the phosphorylation of the Ulight-peptide substrate. It is detected by using a specific EU-labeled anti-phospho peptide antibody. The binding of the Eu labeled anti-phospho peptide antibody to the phosphorylated ULight labeled peptide gives rise to a FRET-signal. Binding of an inhibitor to the kinase prevents phosphorylation of the Ulight-substrate, resulting in a loss of FRET. In table 2 is summarized the relevant information for the LANCE assay. Table 2: Reagents, stock concentrations and final assay concentrations for Her2 INS YVMA.
The compounds of general formula (I) summarized in Table 3 were serial diluted from a 10 mM DMSO stock solution 1:3 over 8 steps in a total volume of 20 µl. For every sample, 8 µl of kinase-substrate mix was transferred into a suitable assay plate (e.g. Corning #3673). Compound was added via pintool transfer (10nl/well) using a Biomek FX robot (BeckmanCoulter). Reaction was started by addition of 2µl ATP working solution and mixed using variomag teleshaker (Thermo Fischer Scientific). After 1 h incubation at room temperature the reaction was stopped with 10µl detection mix containing the Eu-labeled phosphospecific antibody and 10mM EDTA. After a second incubation period of 1 h at room temperature the FRET signal was measured at 340 nm excitation, 665 nm and 615 nm emission (for the ULight-substrate and Eu-AB, respectively) with an Envision spectrophotometer (Perkin Elmer, Waltham, MA, USA) with 50 µs delay and 300 µs integration time. IC50 values were determined from the sigmoidal dose response curves with the software Quattro Workflow (Quattro GmbH, Munich, Germany).

[2] = system: EGFR Exon 20 InsNPH Ba/F3; experiment: CellTiter-Glo cell viability, EGFR Exon 20 InsNPH Ba/F3; type: cell-based; details: Mus musculus, BaF3, 72 h, read-out: EGFR Exon 20 InsNPH Ba/F3 CTG IC50
Procedure: (§1) The CellTiter-Glo Luminescent Cell Viability Assay (Promega) is a homogeneous method of determining the number of viable cells in culture. It is based on quantification of ATP, indicating the presence of metabolically active cells. Cells are seeded on day 1 at cell numbers that assure assay linearity and optimal signal intensity. After incubation for 24h in humidified chambers at 37°C and 5% CO2, compounds in DMSO are added at different concentrations. Cells are further incubated for 72 h at 37°C and 5% CO2. Cells treated with the compound vehicle DMSO are used as positive controls and cells treated with 10 µM Staurosporine serve as negative controls. At day 5 the CellTiter Glo Reagent is prepared according to the instructions of the kit (Promega Inc.): Reagent is mixed 1:1 with cell culture medium. Thereon, mixture and assay plates are equilibrated at room temperature for 20 min. Equal volumes of the reagent-medium-mixture is added to the volume of culture medium present in each well. The plates are mixed at ∼200 rpm for 2 minutes on an orbital shaker. The microplates are then incubated at room temperature for 10 minutes for stabilization of the luminescent signal. Following incubation the luminescence is recorded on a Victor microplate reader (Perkin Elmer) using a 200 ms integration time. The data is then analyzed with Excel using the XLFIT Plugin (dose response Fit 205) for IC50-determination. As quality control the Z'-factor is calculated from 16 positive and negative control values. Only assay results showing a Z'-factor ≥ 0.5 are used for further analysis.

[3] = system: Her2 Exon 20 InsYVMA Ba/F3; experiment: CellTiter-Glo cell viability, Her2 Exon 20 InsYVMA Ba/F3; type: cell-based; details: Mus musculus, BaF3, 72 h, read-out: Her2 Exon 20 InsYVMA Ba/F3 CTG IC50
Procedure: as §1

[4] = system: Cuto-17; experiment: CellTiter-Glo cell viability, Cuto-17; type: cell-based; details: CUTO17, 72 h, read-out: Cuto-17 CTG IC50
Procedure: as §1

[5] = target: EGFR T790M L858R (Homo sapiens, UniProt P00533, L858R/T790M); experiment: Lance assay, EGFR T790M L858R; details: biochemical Lance assay
Sequence of EGFR T790M L858R (P00533 25-1210 T790M/L858R): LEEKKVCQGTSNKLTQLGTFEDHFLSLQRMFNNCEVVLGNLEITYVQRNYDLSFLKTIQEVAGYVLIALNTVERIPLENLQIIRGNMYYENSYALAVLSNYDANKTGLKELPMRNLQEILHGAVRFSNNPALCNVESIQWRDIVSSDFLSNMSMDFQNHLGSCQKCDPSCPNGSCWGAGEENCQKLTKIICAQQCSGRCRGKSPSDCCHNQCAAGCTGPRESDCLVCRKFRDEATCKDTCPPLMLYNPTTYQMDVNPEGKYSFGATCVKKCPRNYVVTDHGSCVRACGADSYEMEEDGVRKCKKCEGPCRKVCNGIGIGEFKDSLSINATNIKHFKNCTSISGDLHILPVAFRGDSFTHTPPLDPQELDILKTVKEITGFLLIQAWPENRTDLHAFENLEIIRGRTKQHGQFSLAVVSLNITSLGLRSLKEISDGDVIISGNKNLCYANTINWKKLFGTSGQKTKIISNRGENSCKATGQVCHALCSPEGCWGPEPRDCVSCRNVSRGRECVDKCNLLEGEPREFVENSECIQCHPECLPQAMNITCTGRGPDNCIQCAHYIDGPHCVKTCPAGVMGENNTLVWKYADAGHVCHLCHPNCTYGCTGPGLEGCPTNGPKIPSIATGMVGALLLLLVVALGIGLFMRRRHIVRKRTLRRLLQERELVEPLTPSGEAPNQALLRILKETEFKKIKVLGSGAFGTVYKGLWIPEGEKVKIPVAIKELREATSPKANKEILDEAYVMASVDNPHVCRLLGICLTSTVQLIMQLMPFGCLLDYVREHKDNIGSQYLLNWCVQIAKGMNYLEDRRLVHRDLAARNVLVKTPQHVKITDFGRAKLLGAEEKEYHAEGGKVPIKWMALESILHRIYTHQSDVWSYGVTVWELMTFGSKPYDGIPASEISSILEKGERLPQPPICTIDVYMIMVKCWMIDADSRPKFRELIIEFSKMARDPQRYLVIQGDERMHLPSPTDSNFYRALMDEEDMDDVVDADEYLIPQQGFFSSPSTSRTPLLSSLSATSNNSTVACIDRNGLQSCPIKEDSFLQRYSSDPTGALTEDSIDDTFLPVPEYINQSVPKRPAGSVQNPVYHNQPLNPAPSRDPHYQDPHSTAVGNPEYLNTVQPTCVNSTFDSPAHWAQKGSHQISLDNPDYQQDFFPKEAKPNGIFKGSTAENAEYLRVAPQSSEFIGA

[6] = target: EGFR L858R (Homo sapiens, UniProt P00533, L858R); experiment: Lance assay, EGFR L858R; details: biochemical Lance assay
Sequence of EGFR L858R (P00533 25-1210 L858R): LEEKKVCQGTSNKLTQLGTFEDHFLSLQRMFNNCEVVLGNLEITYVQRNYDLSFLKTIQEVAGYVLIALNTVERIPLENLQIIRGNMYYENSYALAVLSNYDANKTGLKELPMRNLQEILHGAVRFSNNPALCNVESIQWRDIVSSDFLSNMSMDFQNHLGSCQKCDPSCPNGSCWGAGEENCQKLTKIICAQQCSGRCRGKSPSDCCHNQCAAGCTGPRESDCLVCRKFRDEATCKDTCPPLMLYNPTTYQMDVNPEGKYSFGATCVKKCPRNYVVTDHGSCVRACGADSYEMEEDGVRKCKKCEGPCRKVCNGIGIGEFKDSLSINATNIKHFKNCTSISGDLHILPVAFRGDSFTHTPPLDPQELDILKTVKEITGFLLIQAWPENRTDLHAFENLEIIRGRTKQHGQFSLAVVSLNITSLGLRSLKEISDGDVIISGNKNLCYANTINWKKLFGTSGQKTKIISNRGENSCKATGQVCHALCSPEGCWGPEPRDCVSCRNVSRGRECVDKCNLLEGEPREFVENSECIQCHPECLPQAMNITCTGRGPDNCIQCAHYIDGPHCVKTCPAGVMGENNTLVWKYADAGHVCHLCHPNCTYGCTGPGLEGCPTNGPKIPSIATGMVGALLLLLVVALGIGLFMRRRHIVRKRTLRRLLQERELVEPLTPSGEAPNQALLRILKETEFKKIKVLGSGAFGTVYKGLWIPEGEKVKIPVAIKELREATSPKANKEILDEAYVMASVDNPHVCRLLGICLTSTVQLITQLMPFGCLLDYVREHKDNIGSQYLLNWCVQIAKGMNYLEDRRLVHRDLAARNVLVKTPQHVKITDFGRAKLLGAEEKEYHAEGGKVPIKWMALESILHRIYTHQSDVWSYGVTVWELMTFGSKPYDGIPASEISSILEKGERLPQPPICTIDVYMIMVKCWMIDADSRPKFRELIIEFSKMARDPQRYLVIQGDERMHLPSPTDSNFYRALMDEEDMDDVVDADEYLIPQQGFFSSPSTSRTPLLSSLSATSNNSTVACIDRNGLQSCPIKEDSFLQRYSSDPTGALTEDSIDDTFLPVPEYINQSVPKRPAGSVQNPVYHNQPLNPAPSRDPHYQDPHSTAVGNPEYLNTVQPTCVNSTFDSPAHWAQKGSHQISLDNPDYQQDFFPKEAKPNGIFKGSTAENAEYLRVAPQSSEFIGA

[7] = target: EGFR (del746-750) (Homo sapiens, UniProt P00533, DEL746-750); experiment: Lance assay, EGFR (del746-750); details: biochemical Lance assay
Sequence of EGFR (del746-750) (P00533 with tags, fused parts or gaps DEL746-750): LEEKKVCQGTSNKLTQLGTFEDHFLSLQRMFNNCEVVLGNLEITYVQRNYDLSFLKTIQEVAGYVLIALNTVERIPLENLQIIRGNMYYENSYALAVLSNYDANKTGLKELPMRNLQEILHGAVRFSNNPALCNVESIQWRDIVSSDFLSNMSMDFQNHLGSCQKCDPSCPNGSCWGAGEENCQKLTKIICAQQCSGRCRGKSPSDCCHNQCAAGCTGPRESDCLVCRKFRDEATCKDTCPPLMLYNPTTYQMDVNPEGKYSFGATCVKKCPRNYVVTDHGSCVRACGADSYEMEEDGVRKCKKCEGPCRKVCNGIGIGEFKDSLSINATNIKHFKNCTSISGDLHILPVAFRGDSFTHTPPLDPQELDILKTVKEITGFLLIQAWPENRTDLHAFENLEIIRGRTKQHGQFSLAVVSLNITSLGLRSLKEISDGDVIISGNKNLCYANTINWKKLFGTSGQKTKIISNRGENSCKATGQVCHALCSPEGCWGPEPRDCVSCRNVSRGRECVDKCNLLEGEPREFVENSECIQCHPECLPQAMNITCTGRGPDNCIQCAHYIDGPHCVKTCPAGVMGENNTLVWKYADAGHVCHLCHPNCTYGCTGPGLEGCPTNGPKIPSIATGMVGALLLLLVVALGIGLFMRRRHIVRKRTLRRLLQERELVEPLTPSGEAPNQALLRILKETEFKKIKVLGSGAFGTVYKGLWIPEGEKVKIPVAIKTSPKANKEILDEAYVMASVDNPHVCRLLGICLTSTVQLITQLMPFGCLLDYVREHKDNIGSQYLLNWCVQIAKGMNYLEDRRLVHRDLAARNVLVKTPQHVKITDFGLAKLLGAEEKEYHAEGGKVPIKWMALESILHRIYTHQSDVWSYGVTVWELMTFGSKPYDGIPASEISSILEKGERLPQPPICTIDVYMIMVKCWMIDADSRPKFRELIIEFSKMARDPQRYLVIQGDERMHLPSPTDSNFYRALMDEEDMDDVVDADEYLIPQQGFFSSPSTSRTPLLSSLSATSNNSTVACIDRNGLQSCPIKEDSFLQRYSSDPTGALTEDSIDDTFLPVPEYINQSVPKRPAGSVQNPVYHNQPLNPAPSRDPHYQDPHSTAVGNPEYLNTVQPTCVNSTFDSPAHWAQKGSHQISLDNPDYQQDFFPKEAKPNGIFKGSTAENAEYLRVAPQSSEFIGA

[8] = target: EGFR wt (Homo sapiens, UniProt P00533); experiment: Lance assay, EGFR wt; details: biochemical Lance assay
[9] = system: H1975; experiment: CellTiter-Glo cell viability, H1975; type: cell-based; details: Homo sapiens, NCI-H1975, 72 h, read-out: H1975 CTG IC50
Procedure: as §1

[10] = system: A431; experiment: CellTiter-Glo cell viability, A431; type: cell-based; details: Homo sapiens, A-431, 72 h, read-out: A431 CTG IC50
Procedure: as §1

[11] = system: EGFR L858R T790M Ba/F3; experiment: CellTiter-Glo cell viability, EGFR L858R T790M Ba/F3; type: cell-based; details: Mus musculus, BaF3, 72 h, read-out: EGFR L858R T790M Ba/F3 CTG IC50 /
Procedure: as §1

[12] = system: EGFR L858R Ba/F3; experiment: CellTiter-Glo cell viability, EGFR L858R Ba/F3; type: cell-based; details: Mus musculus, BaF3, 72 h, read-out: EGFR L858R Ba/F3 CTG IC50 /
Procedure: as §1

[13] = system: EGFR vIII Ba/F3; experiment: CellTiter-Glo cell viability, EGFR vIII Ba/F3; type: cell-based; details: Mus musculus, BaF3, 72 h, read-out: EGFR vIII Ba/F3 CTG IC50 /
Procedure: as §1

T1 sequence (P04626 with tags, fused parts or gaps INS775YVMA): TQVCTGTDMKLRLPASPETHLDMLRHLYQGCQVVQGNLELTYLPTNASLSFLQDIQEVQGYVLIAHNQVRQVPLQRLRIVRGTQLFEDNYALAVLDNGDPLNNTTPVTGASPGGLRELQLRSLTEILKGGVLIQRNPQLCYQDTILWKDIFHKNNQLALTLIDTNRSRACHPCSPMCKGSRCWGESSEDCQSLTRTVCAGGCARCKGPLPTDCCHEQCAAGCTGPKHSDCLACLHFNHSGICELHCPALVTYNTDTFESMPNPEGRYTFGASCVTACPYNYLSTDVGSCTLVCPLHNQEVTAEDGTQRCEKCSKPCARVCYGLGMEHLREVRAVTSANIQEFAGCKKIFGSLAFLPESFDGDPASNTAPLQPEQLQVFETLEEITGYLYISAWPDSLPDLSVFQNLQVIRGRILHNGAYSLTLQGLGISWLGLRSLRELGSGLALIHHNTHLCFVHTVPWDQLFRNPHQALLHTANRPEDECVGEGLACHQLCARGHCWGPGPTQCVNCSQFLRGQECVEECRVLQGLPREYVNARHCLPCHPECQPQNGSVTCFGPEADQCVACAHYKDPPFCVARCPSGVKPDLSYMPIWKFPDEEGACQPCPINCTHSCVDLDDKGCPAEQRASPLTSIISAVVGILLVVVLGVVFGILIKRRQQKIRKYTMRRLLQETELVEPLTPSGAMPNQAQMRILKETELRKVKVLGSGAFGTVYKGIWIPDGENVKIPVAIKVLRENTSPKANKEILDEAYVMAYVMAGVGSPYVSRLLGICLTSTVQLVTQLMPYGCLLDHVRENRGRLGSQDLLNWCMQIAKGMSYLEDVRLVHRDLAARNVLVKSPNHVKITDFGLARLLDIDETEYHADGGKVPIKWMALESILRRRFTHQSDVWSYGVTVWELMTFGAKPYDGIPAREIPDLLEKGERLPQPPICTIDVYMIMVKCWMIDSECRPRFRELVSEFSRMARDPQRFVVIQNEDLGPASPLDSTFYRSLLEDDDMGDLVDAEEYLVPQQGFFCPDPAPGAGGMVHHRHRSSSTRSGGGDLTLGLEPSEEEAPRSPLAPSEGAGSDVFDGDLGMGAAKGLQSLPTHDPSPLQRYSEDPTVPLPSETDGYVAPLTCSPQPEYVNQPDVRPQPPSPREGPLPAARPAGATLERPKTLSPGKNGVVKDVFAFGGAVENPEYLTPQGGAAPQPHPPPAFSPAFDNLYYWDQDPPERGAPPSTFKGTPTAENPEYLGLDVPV

Row | SMILES | IC50 [1] | IC50 [2] | IC50 [3] | IC50 [4] | IC50 [5] | IC50 [6] | IC50 [7] | IC50 [8] | IC50 [9] | IC50 [10] | IC50 [11] | IC50 [12] | IC50 [13]
1 | C=CC(=O)Nc1cc(-c2c(-c3cnn(C)c3)[nH]c3ncc(C(=O)OC(C)C)cc23)ccc1C [Example 1, Isopropyl 3-(3-acrylamido-4-methylphenyl)-2-(1-methyl-1H-pyrazol-4-yl)-1H-pyrrolo[2,3-b]pyridine-5-carboxylate 2,2,2-trifluoroacetate] | 50 to 100 nM | 100 to 500 nM | 100 to 500 nM | 500 to 1000 nM | ≤ 50 nM | ≤ 50 nM | ≤ 50 nM | ≤ 50 nM | 500 to 1000 nM | 1000 to 10000 nM | ≤ 50 nM | ≤ 50 nM | 100 to 500 nM
2 | C=CC(=O)Nc1cc(-c2c(-c3cnn(C)c3)[nH]c3ncc(OCC(C)C)cc23)ccc1C [Example 4, N-(5-(5-isobutoxy-2-(1-methyl-1H-pyrazol-4-yl)-1H-pyrrolo[2,3-b]pyridin-3-yl)-2-methylphenyl)acrylamide 2,2,2-trifluoroacetate] | 50 to 100 nM | 100 to 500 nM | 100 to 500 nM | 100 to 500 nM | 50 to 100 nM | ≤ 50 nM | ≤ 50 nM | ≤ 50 nM | 100 to 500 nM | 1000 to 10000 nM | ≤ 50 nM | ≤ 50 nM | ≤ 50 nM
3 | C=CC(=O)Nc1cc(-c2c(-c3cnn(C)c3)[nH]c3ncc(-c4cnn(CC(C)C)c4)cc23)ccc1C [Example 32, N-(5-(5-(1-isobutyl-1H-pyrazol-4-yl)-2-(1-methyl-1H-pyrazol-4-yl)-1H-pyrrolo[2,3-b]pyridin-3-yl)-2-methylphenyl)acrylamide] | 100 to 500 nM | 50 to 100 nM | 100 to 500 nM | – | 100 to 500 nM | ≤ 50 nM | ≤ 50 nM | ≤ 50 nM | – | 1000 to 10000 nM | 100 to 500 nM | ≤ 50 nM | ≤ 50 nM
4 | C=CC(=O)Nc1cc(-c2c(-c3cnn(C)c3)[nH]c3ncc(-c4cnn(CCOC)c4)cc23)ccc1C [Example 33, N-(5-(5-(1-(2-methoxyethyl)-1 H-pyrazol-4-yl)-2-(1-methyl-1 H-pyrazol-4-yl)-1H-pyrrolo[2,3-b]pyridin-3-yl)-2-methylphenyl)acrylamide] | 50 to 100 nM | 100 to 500 nM | 500 to 1000 nM | – | ≤ 50 nM | ≤ 50 nM | ≤ 50 nM | ≤ 50 nM | – | 1000 to 10000 nM | 100 to 500 nM | ≤ 50 nM | ≤ 50 nM
5 | C=CC(=O)Nc1cc(-c2c(-c3cnn(C)c3)[nH]c3ncc(-c4cnn(CCN(C)C)c4)cc23)ccc1C [Example 34, N-(5-(5-(1-(2-(dimethylamino)ethyl)-1H-pyrazol-4-yl)-2-(1-methyl-1H-pyrazol-4-yl)-1H-pyrrolo[2,3-b]pyridin-3-yl)-2-methylphenyl)acrylamide] | 500 to 1000 nM | 1000 to 10000 nM | > 10000 nM | – | 100 to 500 nM | ≤ 50 nM | ≤ 50 nM | ≤ 50 nM | – | 1000 to 10000 nM | 1000 to 10000 nM | > 10000 nM | 1000 to 10000 nM
6 | C=CC(=O)Nc1cc(-c2c(-c3cnn(C)c3)[nH]c3ncc(-c4cnn(C5COC5)c4)cc23)ccc1C [Example 35, N-(2-methyl-5-(2-(1-methyl-1H-pyrazol-4-yl)-5-(1-(oxetan-3-yl)-1 H-pyrazol-4-yl)-1H-pyrrolo[2,3-b]pyridin-3-yl)phenyl)acrylamide] | 100 to 500 nM | 500 to 1000 nM | 1000 to 10000 nM | – | ≤ 50 nM | ≤ 50 nM | ≤ 50 nM | ≤ 50 nM | – | 1000 to 10000 nM | 100 to 500 nM | ≤ 50 nM | 100 to 500 nM
